IC50 data for three molecules are collected here from ChEMBL document CHEMBL1151212, “Ananosic acids B and C, two new 18(13-->12)-abeo-lanostane triterpenoids from Kadsura ananosma” (J Nat Prod, 2004).

One experiment deals with CCRF-CEM. Nature of the experiment: Cytotoxicity against human CCRF-CEM cells assessed as cell viability. The format is functional, cell-based.
The subject of a further experiment is HeLa. Nature of the experiment: Cytotoxicity against human HeLa cells assessed as cell viability. In kind it is functional, cell-based.

Converted amounts (≈) assume the structure as drawn.

For `C/C(=C/CC[C@@H](C)C1=C2C(C)C[C@H]3C(=CC[C@H]4C(C)(C)[C@H](O)CC[C@]34C)[C@]2(C)CC1)C(=O)O` (stereo partly specified) [ANANOSIC ACID A], the half-inhibitory concentration (IC50) (in general, the concentration needed to halve the response being measured) in the experiment with CCRF-CEM is 45.4 µg/mL (≈ 99.8 µM); in the experiment on HeLa, 0.46 µg/mL (≈ 1.01 µM).
The matching figures for `C=C1C[C@H]2C(=CC[C@H]3C(C)(C)[C@H](OC(C)=O)CC[C@]23C)[C@]2(C)CC[C@H]([C@H](C)CC/C=C(/C)C(=O)O)C12` (stereo partly specified) [ANANOSIC ACID B]: 49.6 µg/mL (≈ 99.9 µM) and 0.54 µg/mL (≈ 1.09 µM).
The matching figures for `C=C1C[C@H]2C(=CC[C@H]3C(C)(C)C(=O)CC[C@]23C)[C@]2(C)CC[C@H]([C@H](C)CC/C=C(/C)C(=O)O)C12` (stereo partly specified) [ANANOSIC ACID C]: 45.2 µg/mL (≈ 99.9 µM) and 0.48 µg/mL (≈ 1.06 µM).
